Test results reported in patent US20240252418A1, “Additives (Adjuvants, Anti Freezing Agents, Antimicrobial and Antioxidants) in Natural Deep Eutectic Solvents and Mixtures” (Bioeutectics Corporation, priority 2023, published 2024).

Assays:
[1] = Solubility test for common agro actives; details: 14% w/w analyte/solvent, 30° C., vortex and ultrasound
Procedure: Solubility test (for common agro actives) was carried out at the working concentration of 14% w/w analyte/solvent, initially in traditional solvents and then in our selected solvents, at 30° C. and assisted by vortex and ultrasound.

[2] = system: waxy leaves of Epipremnum aureum; assay: Wetted area of droplets on waxy leaves; assay type: physicochemical
Procedure: (§1) A general procedure was developed to evaluate the wetted area of droplets. The test system was prepared with 1% of the eutectic products in water, and a miscible dye, which allowed the visualization of the wetted area droplets. To compare the ability of the pure systems to a known adjuvant, TX (Triton X-100), a nonionic surfactant that has a hydrophilic polyethylene oxide chain with, on average, 9.5 ethylene oxide units) was used and was prepared under the same conditions and compared with a water/dye blank.
In a subsequent experiment, the wetted area of droplets was tested on waxy leaves of Epipremnum aureum. The quantitative results of those tests appear in Table 2.

[3] = Evaporation time measurements; assay type: physicochemical; details: 5 μL drop of 1% solution in H2O, glass slide, room temperature
Procedure: Evaporation time was analyzed after applying 5 μL (one drop) of a 1% solution in water, on a glass slide at room temperature.

[4] = Wetted area of droplets on a paper sheet (pure systems); assay type: physicochemical; details: 5 μL drop
Procedure: as §1

[5] = Wetted area on a paper sheet (mixture systems with TX); assay type: physicochemical
Procedure: as §1
With the results from the pure systems on paper and a waxy leaf shown in tables 1 and 2, a subsequent test was performed wherein mixtures of the products of the present invention with TX were compared on a paper sheet. Mixtures comprising TX and the products under study were evaluated at 0.9, 0.75, 0.50, 0.25, and 0.10% (1% total concentration). […] Compared to TX/water, the mixture with TX/BOA (50/50%) increased the wetted area by around 190%, systems with TX/BOA and TX/BOA (75/25%) increased the wetted area by around 180%, while TX/BOA (25/75%) increased the wetted area by around 150% (see Table 3).

[6] = Component A TX 0.1% + Component B 0.9%
[7] = Component A TX 0.25% + Component B 0.75%
[8] = Component A TX 0.5% + Component B 0.5%
[9] = Component A TX 0.75% + Component B 0.25%
[10] = Component A TX 0.9% + Component B 0.1%

CCNc1nc(Cl)nc(NC(C)(C)C)n1 [Terbutylazine]
Solubility in the selected solvents [1]: Soluble in 9 of our tested solvents

Triton X-100 [TX]
Relative size (%) with reference to H2O [2]: 333.18%
Relative size (%) with reference to TX [2]: 100.00%
Evaporation time [3]: 19.73 min
The relative evaporation time with reference to TX (min) [3]: 1.00
Relative size (%) with reference to H2O ([4]; 1% in water): 424.82%
Relative size (%) with reference to TX ([4]; 1% in water): 100.00%
Area ([4]; 1% in water with dye): 23.98 mm^2
Area [5, 6]: 18.05 mm^2
Relative size (%) with reference to TX/H2O [5, 6]: 100.00%
Area [5, 7]: 18.99 mm^2
Relative size (%) with reference to TX/H2O [5, 7]: 100.00%
Area [5, 8]: 17.78 mm^2
Relative size (%) with reference to TX/H2O [5, 8]: 100.00%
Area [5, 9]: 17.84 mm^2
Relative size (%) with reference to TX/H2O [5, 9]: 100.00%
Area [5, 10]: 15.81 mm^2
Relative size (%) with reference to TX/H2O [5, 10]: 100.00%
